Measured values taken from patent publication US20150045410A1, “METHOD OF REGULATING CFTR EXPRESSION AND PROCESSING” (University of Iowa Research Foundation, priority 2012, published 2015).

Columns and labels:
CFTR-ΔF508 = experiment: CFTR-mediated Cl^− transport (transepithelial current) in primary CF airway epithelia; type: cell-based, human; conditions: multiple donors, oligonucleotide transfection, F&I then GlyH-101
Description: FIG. 27. […] Change in It following F&I+PG-01 treatment of primary CF airway epithelial cells (homozygous for ΔF508-CFTR) with indicated reagents. N=1 donor. PG-01 is a potentiator used along with F&I to increase Cl^− transport.
Airway epithelia from human trachea and primary bronchus removed from organs donated for research were cultured at the air-liquid interface (ALI) (Karp, P. H. et al. An in vitro model of differentiated human airway epithelia. Methods for establishing primary cultures. Methods Mol. Biol. 188, 115-137 (2002)). These studies were approved by the Institutional Review Board of the University of Iowa. Briefly, airway epithelial cells were dissociated from native tissue by pronase enzyme digestion. […]
Transepithelial Cl^− current measurements were made in Ussing chambers about 2 weeks post-seeding (Itani, 0. A. et al. Human cystic fibrosis airway epithelia have reduced Cl− conductance but not increased Na+ conductance. Proc. Natl. Acad. Sci. USA 108, 10260-10265 (2011)). […] Transepithelial Cl^− current was measured under short-circuit current conditions. […] After measuring baseline current, the transepithelial current (It) response to sequential apical addition of 100 μM amiloride (Amil), 100 μM 4,4′-diisothiocyanoto-stilbene-2,2′-disulfonic acid (DIDS), 4.8 mM [Cl^−], 10 μM forskolin and 100 μM 3-isobutyl-1-methylxanthine (IBMX), and 100 μM GlyH-101 was measured. […]

HA-tagged wild-type CFTR = experiment: Cell surface ELISA (anti-HA) in HeLa cells stably expressing HA-tagged wild-type CFTR; type: cell-based; conditions: wild-type CFTR-3HA under CMV promoter, 6, 12, 24 hrs post-transfection
From the text: Hela cells stably expressing wild-type CFTR or CFTR-ΔF508 were kindly provided by Dr. G. Lukacs (Sharma, M., Benharouga, M., Hu, W. & Lukacs, G. L. Conformational and temperature-sensitive stability defects of the delta F508 cystic fibrosis transmembrane conductance regulator in post-endoplasmic reticulum compartments. J Biol. Chem. 276, 8942-8950, (2001); Sharma, M. et al. Misfolding diverts CFTR from recycling to degradation: quality control at early endosomes. J Cell Biol. 164, 923-933 (2004)). Cell surface ELISA was performed on these cells (Okiyoneda, T. et al. Peripheral protein quality control removes unfolded CFTR from the plasma membrane. Science 329, 805-810 (2010)) 6 hrs, 12 hrs, and 24 hrs after transfecting with oligonucleotides. HeLa cells were transfected in 96 well plates (Costar) with the SIN3A DsiRNA and miR-138 mimic as described earlier using the Lipofectamine™ RNAiMAX (Invitrogen) recommended reverse transfection protocol. Briefly, the plate containing the cells was moved to a cold room (4° C.), and all media used was ice cold. […] The reaction was stopped and read on a VersaMax™ Microplate Reader (Molecular Devices) at 540 nm using the SoftMax® Prof Software (Molecular Devices). For normalization, cells were lysed and total protein quantitated using the BCA Protein Assay kit (Pierce). […] Statistical significance between groups was determined using Student's t-test.

Substance	CFTR-mediated Cl^− transport (CFTR-ΔF508)	HA-tagged CFTR at the cell surface (ELISA) (HA-tagged wild-type CFTR)
miR-138 mimic: synthetic modified RNA duplex, sense SEQ ID NO: 4, antisense SEQ ID NO: 5, showing miR-138-like activity	restored	increase
SIN3A DsiRNA: Dicer-substrate siRNA against SIN3A, sense SEQ ID NO: 6, antisense SEQ ID NO: 7 (sense GCGAUACAUGAAUUCAGAUACUACC; antisense GGUAGUAUCUGAAUUCAUGUAUCGCUC; chemistry not given here)	restored	increase
